Reference: ChEMBL document CHEMBL3217413, “Chemical space as a source for new drugs” (Medchemcomm, 2010)
Activity calls are given as the source filed them. The calls are words filed in the database; no cut-off is given here.

Key:
[1] = biological target: Glutamate [NMDA] receptor (Homo sapiens) (UniProt Q05586+Q12879+Q13224+O15399+O60391+Q14957+Q8TCU5); experiment: (§1) Inhibition of NMDA receptor glycine binding site (unknown origin)
[2] = biological target: Glutamate [NMDA] receptor; experiment: as §1; parameters: species or system Homo sapiens
[3] = tested on: Human immunodeficiency virus; experiment: Antiviral activity against HIV; type: functional, organism-based; details: Human immunodeficiency virus 1
Nucleic Acid = experiment: Inhibition of TAT/TAR RNA interaction in HIV1; type: nucleic-acid assay, Human immunodeficiency virus 1
[4] = Inhibition of estrogen receptor (unknown origin); parameters: species or system Homo sapiens
[5] = biological target: Adrenergic receptor alpha-1 (Homo sapiens) (UniProt P35348+P25100+P35368); experiment: Inhibition of alpha1 adrenergic receptor (unknown origin) at 10 uM by radioligand displacement assay; type: protein assay

Compound | IC50 [2] [µM] | other results
NC[C@H]1CNC(=O)C(=O)N1 |  | inhibition [1]: inactive
NC[C@@H]1NC(=O)CNC1=O | 370 | 
CC(C)n1c(O)nnc1Sc1cccc(C(F)(F)F)c1 |  | IC50 [3]: 80 µM
C[C@@H](NCCN)C(=O)O | 112 | 
CCOc1cccc(CN(c2cccc(F)c2)C2CCNCC2)c1 |  | IC50 (Nucleic Acid): 500 µM
C[C@H](N)CC(=O)NCC(=O)O | 28 | 
NCCCC(=O)NCC(=O)O | 61 | 
Oc1ccc(-c2cc3ccc(O)cc3s2)cc1 [RALOXIFENE CORE] |  | IC50 [4]: 0.34 µM
OCc1ccccc1C1CCCNC1 (stereo not given) |  | inhibition [5]: > 50%
CCNCCC(=O)NCCC(=O)O | 60 | 
